Data on 1 compound can be found in patent publication US20100137433A1, “Production of Rosmarinic Acid from Spearmint and uses Thereof” (priority 2007, published 2010).

The test system of data set [1] is mild allergic asthmatic subjects. Briefly: Methacholine inhalation test (methacholine PC20, airway hyper-responsiveness). The format is in vivo, human. Particulars: tea 2 cups per day for 7 days. The procedure:
Subjects. Two subjects (45 and 57 year old, male) were recruited for the study. Inclusion criteria required subjects to be non-smokers with stable, mild atopic asthma, free of other lung disease. Subjects were required to have FEV1 (forced expiratory volume in 1 second)>70% of predicted, baseline methacholine PC20 (the provocative concentration of methacholine causing a 20% fall in FEV1)<16 mg/mL, and development of an allergen-induced EAR (at least 20% fall in FEV1 within 2 h post allergen inhalation) and LAR (at least 15% fall FEV1 between 3-7 h post allergen inhalation).
(§1) Study design. Subjects meeting the inclusion criteria underwent allergen challenge with placebo and rosmarinic acid, in this order, separated by a washout period of at least 4 weeks. Placebo was inhaled PBS on 2 consecutive mornings before challenge. Rosmarinic acid treatment consisted of 7 days of 2 cups of tea per day. Day 6 consisted of pre-dose measurements of airway hyperresponsiveness and sputum cells. On Day 7 allergen inhalation challenge was performed. Measurements of FEV1 were taken at regular intervals until 7 h after challenge and sputum cells were then collected. […]
Methacholine inhalation challenge was performed as described by Cockcroft (1985). The test was terminated when a fall in FEV1 of 20% of the baseline value occurred, and the methacholine PC20 is calculated.

The test system is the same in data set [2]. Briefly: Allergen inhalation challenge (allergen-induced bronchoconstriction, EAR and LAR). The format is in vivo, human. The method, then: (§2) Subjects. Two subjects (person) were recruited for the study. Inclusion criteria required subjects to be non-smokers with stable, mild atopic asthma, free of other lung disease. Subjects were required to have FEV1 (forced expiratory volume in 1 second)>70% of predicted, baseline methacholine PC20 (the provocative concentration of methacholine causing a 20% fall in FEV1)<16 mg/mL, and development of an allergen-induced EAR (at least 20% fall in FEV1 within 2 h post allergen inhalation) and LAR (at least 15% fall FEV1 between 3-7 h post allergen inhalation).
as §1
Allergen challenge was performed as described by O'Byrne (1987), and the concentration of allergen extract (Omega Laboratories, Montreal, QC) for inhalation was determined from a formula described by Cockcroft et al. (1987). […]

The test system is the same in data set [3]. Kind of data set: Sputum analysis (allergen-induced airway inflammation, sputum eosinophils). The format is in vivo, human. Conditions: vs placebo, two subjects, FIGS. 4A-4B. The method, then: as §2, §1
Sputum was induced and processed using the method described by Pizzichini et al. (1996). Differential cell counts were obtained and an aliquot of cells were lysed for quantitative PCR measurements.

Data set [4] in a line: Stability of rosmarinic acid in dried and stored spearmint 700B tissues. It counts as physicochemical. Conditions: heated to 80° C. for an additional 24 hours after drying to 11.7% moisture. The method, then:
The level of rosmarinic acid in dried and stored samples of spearmint line 700B tissues was followed over time to determine its stability. Spearmint plant tissue was harvested, dried, and stored, and levels of rosmarinic acid were determined essentially as described by Fletcher et al., (2005a). Plant material was harvested manually from the field and placed in large net bags. The bagged mint […] spread evenly over a grate and dried in a drying oven at a temperature of 35° C. for 96 hours. The stems and other debris were separated from the leaves, and the leaves were crushed to a size suitable for tea. The crushed leaf material was transferred to zip-lock bags and stored at room temperature in the absence of light. Additionally, to study the effect of drying temperature on stability of RA, a sample of spearmint plant material was dried to 11.7% moisture as above for determination of RA content. After 96 hours, a sample of the material was placed into a drying oven and heated to 80° C. for an additional 24 hours, and RA levels were also determined.

The conditions of data set [5]: cited from earlier work.
In another data set the test system is Aβ25-35-injected mice. Particulars: Aβ25-35 injection; cited from earlier work.
The test system of data set [6] is mice exposed to diesel dust particulates. Particulars: 2 mg/day for 3 days prior to exposure; cited from earlier work.
The test system of data set [7] is seasonal allergic rhinitis. Conditions: active treatment; cited from earlier work.

Take `O=C(/C=C/c1ccc(O)c(O)c1)O[C@H](Cc1ccc(O)c(O)c1)C(=O)O` [RA, α-O-caffeoyl-3,4-dihydroxyphenyl-lactic acid]: the “Methacholine PC20” value in data set [1] (subject 19, 24 h post allergen challenge (cat)) came out at 0.38 mg/mL; in data set [1] (subject 20, 24 h post allergen challenge (HDMDP)), 1.27 mg/mL. Besides, the “Allergen-induced EAR” value in data set [2] (subject #20, vs placebo, allergen 1:128 dilution with RA, 1:64 with diluent) is recorded as “lower”. Further, the “Effect on the allergen-induced EAR or LAR” value in data set [2] (two subjects, limited sample size) is given as “does not appear to have any effect”. Also, in data set [3], the “% sputum eosinophils post allergen” value is reported as “consistently lower”. The “Amount of RA in the tissues before and after the 80° C. drying step” value in data set [4] was “remained the same”. Besides, in data set [5] (rat urine), the “Recovery of intact rosmarinic acid and metabolites in urine” value is given as 0.077 % of the amount ingested. The “Time to full concentration in the blood plasma” value in data set [5] (rats, absorbed via the small intestine) is ≤ 30 min. For the same compound, the “Effective lowest dose preventing Aβ25-35-induced nitration of proteins in the hippocampus” value in the data set on Aβ25-35-injected mice was 0.25 mg/kg. The “Protein and DNA damage in lung tissue (postmortem histological staining) compared to controls” value in data set [6] is on record as “marked decrease”. Moreover, in data set [7], the “Numbers of neutrophils and eosinophils in nasal lavage fluid” value is “significantly decreased”.
